# Values of other authors in the PKSmart pharmacokinetics tables (Seal et al. 2025).
# Assay: Lombardo, Berellini, Obach 2018, Drug Metab Dispos 46:1466, doi 10.1124/dmd.118.082966
# Conditions: human; for MRT / Vd / clearance / half-life: in vivo, iv; for fraction unbound: plasma
Structure (SMILES),MRT [h],Vd [L/kg],clearance [mL/min/kg],half-life [min],fraction unbound
C=C1/C(=C\C=C2/CCC[C@]3(C)[C@@H]([C@H](C)CCCC(C)(C)O)CC[C@@H]23)C[C@@H](O)C[C@@H]1O,13.3,0.25,0.31,660,–
COC(=O)N(C)c1c(N)nc(-c2nn(Cc3ccccc3F)c3ncccc23)nc1N,10,0.44,0.74,546,–
CCOC(=O)[C@]1(c2ccccc2)CCC=C[C@H]1NC,4.2,2.5,9.9,264,–
CC(=O)O[C@H]1C[C@@H]2CC[C@@H]3[C@H](CC[C@@]4(C)[C@H]3C[C@H]([N+]3(C)CCCCC3)[C@@H]4OC(C)=O)[C@@]2(C)C[C@@H]1[N+]1(C)CCCCC1,2.2,0.2,–,114,0.09
NC[C@H]1OB(O)c2c(OCCCO)cccc21,9.6,2.37,4.1,696,–
NCCC(O)C(=O)N[C@@H]1C[C@H](N)[C@@H](O[C@H]2O[C@H](CN)CC[C@H]2N)[C@H](O)[C@H]1O[C@H]1O[C@H](CO)[C@@H](O)[C@H](N)[C@H]1O (some centres undefined),2.73,0.21,1.28,148,–
COc1c(OCCCN2CCOCC2)ccc2c1N=C(NC(=O)c1cnc(N)nc1)N1CCN=C21,26.8,10.3,6.42,1510,–
O=c1[nH]c(=O)n([C@@H]2O[C@H](CO)[C@H](O)[C@H](O)[C@H]2O)cc1F,3.95,0.33,1.38,253,–
C[C@@H]1CCN(C(=O)CC#N)C[C@@H]1N(C)c1ncnc2[nH]ccc12,3.5,1.24,5.88,–,0.6
CCN(CC)CCN(Cc1ccc(-c2ccc(C(F)(F)F)cc2)cc1)C(=O)Cn1c(SCc2ccc(F)cc2)nc(=O)c2c1CCC2,48.1,11.9,4.11,2450,–
Cc1ccccc1C(=O)Nc1ccc(C(=O)N2CCC[C@H](O)c3cc(Cl)ccc32)c(C)c1,3.5,0.5,2.4,174,0.01
COP(=O)(c1cc(C)cc(/C=C/C#N)c1)c1c(C(N)=O)[nH]c2ccc(Cl)cc12 (centres undefined),5.5,0.56,1.71,264,–
CCN1CCC[C@@H]1CNC(=O)c1cc(S(N)(=O)=O)ccc1OC,8.01,0.94,1.9,390,–
CCC1=C[C@@H]2CN(CCc3c([nH]c4ccccc34)[C@@](C(=O)OC)(c3cc4c(cc3OC)N(C)[C@H]3[C@@](O)(C(=O)OC)[C@H](OC(C)=O)[C@]5(CC)C=CCN6CC[C@]43[C@@H]65)C2)C1,17,12,12,1080,–
C=C(C)[C@@H]1CCC(C)=C[C@H]1c1c(O)cc(CCCCC)cc1O,8.23,6.69,13.6,1430,–
CC(C)=CCN1CC[C@]2(C)c3cc(O)ccc3C[C@H]1C2C (some centres undefined),–,–,–,–,0.39
COc1cc2c(cc1O)CCN[C@]21CS[C@@H]2c3c(OC(C)=O)c(C)c4c(c3[C@H](COC1=O)N1[C@@H]2[C@H]2c3c(cc(C)c(OC)c3O)C[C@@H]([C@@H]1O)N2C)OCO4,35,25,12,2640,0.06
CNS(=O)(=O)CCc1ccc2[nH]cc(C3CCN(C)CC3)c2c1,6.1,2.4,6.6,396,–
CC[N+]1(CC)CCC(=C(c2ccccc2)c2ccccc2)[C@@H]1C,2.5,1.87,12.5,128,–
C[C@H]1COc2c(N3CCN(C)CC3)c(F)c(N)c3c(=O)c(C(=O)O)cn1c23,18.3,2.42,2.2,1210,0.82
CC1(C)SC2C(NC(=O)C(NC(=O)c3cnc4cccnc4c3O)c3ccccc3)C(=O)N2C1C(=O)O (centres undefined),1.4,0.16,1.9,72,0.1
NCCCCCC(=O)O,2.6,0.39,2.5,294,0.92
Oc1cc2cc(CCN3CCN(c4nsc5ccccc45)CC3)c(Cl)cc2[nH]1,3.3,1,5.1,186,–
CN(CC(N)=O)C(=O)N(CCCl)N=O,1.4,0.76,9,60,–

Structure (SMILES),MRT [h],Vd [L/kg],clearance [mL/min/kg],half-life [min],fraction unbound
Nc1ccn([C@@H]2CO[C@H](CO)S2)c(=O)n1,3.6,0.84,3.9,535,–
Cc1ccc(S(=O)(=O)NC(=O)NN2C[C@H]3CCC[C@@H]3C2)cc1,17.5,0.43,0.41,984,0.03
Cc1ccc(Sc2ccccc2N2CCNCC2)c(C)c1,101,35.3,5.8,4320,0.02
O=C1c2ccc3ccccc3c2C(=O)N1CCNCCCNCCN1C(=O)c2ccc3ccccc3c2C1=O,35.2,12,5.7,3160,–
CCC1C(=O)N(C)c2cnc(Nc3ccc(C(=O)N[C@H]4CC[C@H](N5CCN(CC6CC6)CC5)CC4)cc3OC)nc2N1C(C)C (some centres undefined),116,80.5,11.6,6780,–
CC[C@@]1(O)CN2CC[C@H]1C[C@@H]2[C@@H](O)c1ccnc2ccc(OC)cc12,9.4,6.8,12,402,0.47
CC(C(=O)O)c1ccc(C(=O)c2ccccc2)s1 (centres undefined),2.3,0.08,0.62,126,0.015
CN(C)[C@@H]1C(O)=C(C(N)=O)C(=O)[C@@]2(O)C(O)=C3C(=O)c4c(O)cccc4[C@@](C)(O)[C@H]3[C@H](O)[C@@H]12,12,1.7,2,600,0.9
CC1=CC[C@@H](C(C)(C)O)C[C@@H]1O,3.1,0.43,2.7,114,–
Cc1cccc(C)c1NC(=O)C1CCCCN1C (centres undefined),2.5,0.95,6.8,120,0.3
Clc1cccc(Cl)c1NC1=NCCN1,14,3.3,4,456,0.56
CN1CCc2nc(C(=O)N[C@@H]3CC(C(=O)N(C)C)CC[C@@H]3NC(=O)C(=O)Nc3ccc(Cl)cn3)sc2C1 (some centres undefined),–,–,–,–,0.5
C[C@@H]1C[C@H]2[C@H]3CC=C4CC(=O)C=C[C@]4(C)[C@@]3(Cl)[C@@H](O)C[C@]2(C)[C@@]1(OC(=O)c1ccco1)C(=O)CCl,2.9,2.2,12.7,264,–
O=C(O)C(Cl)Cl,0.6,0.19,5.3,39,–
COc1ccc2c(c1)[C@@H]1C[C@]1(C(=O)N1[C@@H]3CC[C@H]1CN(C)C3)Cn1c-2c(C2CCCCC2)c2ccc(C(=O)NS(=O)(=O)N(C)C)cc21,6.38,0.5,1.33,323,0.01
Nc1ccncc1,4.7,2.6,9.3,216,1
CS(=O)(=O)c1ccc2c(c1)N(CCCN1CCC(C(N)=O)CC1)c1ccccc1S2,–,–,12.1,240,–
CC(C)(C)NC(=O)C1CC[C@H]2[C@@H]3C=CC4=CC(C(=O)O)CC[C@]4(C)[C@H]3CC[C@]12C (some centres undefined),27,0.54,0.33,1620,–
COC1C(=O)C(C)C[C@H](C)/C=C/C=C/C=C(\C)[C@@H](OC)C[C@@H]2CC[C@@H](C)[C@@](O)(O2)C(=O)C(=O)N2CCCCC2C(=O)O[C@H]([C@H](C)C[C@@H]2CC[C@H](n3cnnn3)[C@H](OC)C2)CC(=O)C(C)=CC(C)[C@H]1O (some centres undefined),33,1.3,0.67,2100,0.26
Cc1ccc2c(-c3ccccc3)nc(=O)n(C(C)C)c2c1,0.92,0.52,9.45,76.2,0.02
CCCNc1nc(NCCC)nc(N(C)OC)n1,3.04,2.17,11.9,337,–
CCCC(NC(C)C(=O)N1C(C(=O)O)C[C@@H]2CCCC[C@@H]21)C(=O)O (some centres undefined),7.6,–,1.7,1740,0.16
Cc1cccc(Cl)c1C(=O)NC(Cc1ccc(NC(=O)c2c(Cl)cncc2Cl)cc1)C(=O)O (centres undefined),1.3,0.3,3.7,198,0.1
CC[C@@]1(O)C(=O)OCc2c1cc1n(c2=O)Cc2c-1nc1cc3c(cc1c2CN1CCN(C)CC1)OCCO3,3.5,4.77,25.1,212,–

Structure (SMILES),MRT [h],Vd [L/kg],clearance [mL/min/kg],half-life [min],fraction unbound
CC(=O)OCC1=C(C(=O)O)N2C(=O)C(NC(=O)CC#N)[C@H]2SC1 (some centres undefined),2.21,0.49,3.69,121,–
C[N+]1(C)[C@@H]2CC(OC(=O)C(O)(c3cccs3)c3cccs3)C[C@H]1[C@@H]1O[C@@H]12 (some centres undefined),42.3,32,–,–,0.28
COc1cc2c(N)nc(N3CCN(C(=O)OCC(C)(C)O)CC3)nc2c(OC)c1OC,3.1,0.18,0.96,186,–
O=C1NC(=O)C(c2cn3ccccc3n2)=C1C1=CN2CCN(C(=O)N3CCCCC3)C[C@@H]3C=C(F)C=C1[C@H]32,1.9,1.2,10.3,162,0.02
Cc1ccccc1N1C(=O)c2cc(S(N)(=O)=O)c(Cl)cc2NC1C (centres undefined),19,1.6,1.4,1200,–
NC(Cc1c[nH]c2ccc(O)cc12)C(=O)O (centres undefined),7.75,0.8,1.72,368,–
C[C@H]1COc2c(N3CCN(C)CC3)c(F)cc3c(=O)c(C(=O)O)cn1c23,11,1.2,1.9,528,–
CN(C)CCN1C(=O)c2cccc3cc(N)cc(c23)C1=O,6.34,7.33,19.3,287,–
CC(C)(C)OC(=O)NC1CCCCC/C=C\[C@@H]2C[C@@]2(C(=O)NS(=O)(=O)C2CC2)NC(=O)C2C[C@@H](OC(=O)N3Cc4cccc(F)c4C3)CN2C1=O (some centres undefined),0.32,0.22,11.5,109,0.02
Cc1ccc(O)c([C@H](CCN(C(C)C)C(C)C)c2ccccc2)c1,3,1.5,8.4,144,–
Nc1nc(=O)c2c([nH]1)NCC(CNc1ccc(C(=O)NC(CCC(=O)O)C(=O)O)cc1)N2C=O (centres undefined),0.8,0.25,5.8,78,–
COc1ccc([C@@H]2Sc3cc(Cl)ccc3N(CCN(C)C)C(=O)C2OC(C)=O)cc1 (some centres undefined),12.3,9.7,13.7,636,0.1
N#Cc1ccccc1-c1cc(-c2ccccn2)cn(-c2ccccc2)c1=O,229,1.36,0.1,11000,0.05
NC(=O)N1c2ccccc2CC(O)c2ccccc21 (centres undefined),13.6,0.72,0.88,588,0.7
CCC(C)n1ncn(-c2ccc(N3CCN(c4ccc(OCC5COC(Cn6cncn6)(c6ccc(Cl)cc6Cl)O5)cc4)CC3)cc2)c1=O (centres undefined),–,7.4,5.1,1500,–
CCN(CC)CCCC(C)Nc1ccnc2cc(Cl)ccc12 (centres undefined),740,140,4.1,34200,–
CC(C)(C)c1[nH]cnc1/C=c1\[nH]c(=O)/c(=C/c2ccccc2)[nH]c1=O,6.7,3,7.4,378,–
COc1nc(C(Cl)(Cl)Cl)c(Cl)c(OC)c1Cl,5.1,9.1,29.9,228,–
CN1CCN(CC(=O)N2c3ccccc3C(=O)Nc3cccnc32)CC1,10.3,1.71,2.77,666,–
C[C@@H](NCCc1ccc(O)cc1)[C@@H](O)c1ccc(O)cc1,2.4,4.4,31,156,0.64
CC1(C)[C@H]2CC[C@@]3(C)C(C(=O)C=C4C5C[C@](C)(C(=O)O)CC[C@@]5(C)CC[C@@]43C)[C@]2(C)CC[C@H]1O[C@H]1OC(C(=O)O)[C@@H](O)[C@H](O)[C@H]1O[C@@H]1OC(C(=O)O)[C@@H](O)[C@H](O)[C@H]1O (some centres undefined),30.9,0.09,0.05,1390,–
O=P(O)(O)C(Cl)(Cl)P(=O)(O)O,9.2,0.88,1.6,2590,0.64
